The results in this text go back to publication PMC9542405, “Design, synthesis and antitumor activity of 5-trifluoromethylpyrimidine derivatives as EGFR inhibitors” (Journal of Enzyme Inhibition and Medicinal Chemistry, 2022).

Broadly, the melting point is the temperature of the solid-liquid transition. Usually IC50 stands for the concentration that gives 50% inhibition. Low readings indicate greater potency, high ones weaker potency. The inhibition is the percentage by which the read-out fell short of the control.

The subject of series [1] is A549 cells. The series is described as follows: In vitro activity against cancer cell lines (MTT), A549. It is filed as cell-based. The note with it: Homo sapiens, mean ± SD of three replicates.
Excerpt: (§1) Co., Ltd. A549 (Human non-small-cell lung cancer cell line) cells, MCF-7 (Human breast cancer
(§2) cell line) cells, and PC-3 (Human prostate cancer cell line) cells. They were all purchased from the
(§3) Shanghai Cell Bank of the Chinese Academy of Sciences. NRK-52E (Normal rat kidney cell line)
(§4) cells donated by Guizhou Medicinal University were also used to evaluate the cytotoxicity.
Series [2] concerns PC-3 cells. The series is described as follows: In vitro activity against cancer cell lines (MTT), PC-3. The series is classed as cell-based. The conditions noted are these: Homo sapiens, mean ± SD of three replicates.
Excerpt: as §1, §2, §3, §4
Series [3] concerns MCF-7 cells. Kind of series: In vitro activity against cancer cell lines (MTT), MCF-7. The series is classed as cell-based. The conditions noted are these: Homo sapiens, MCF7, mean ± SD of three replicates.
Excerpt: as §1, §2, §3, §4
Series [4] has as its target T1, EGFR^wt-TK (Homo sapiens, UniProt P00533).
T1 construct: purchased
Kind of series: In vitro EGFR^wt-TK assay (ELISA kit). It is filed as biochemical. The conditions noted are these: mean ± SD of three replicates; for EGFR^wt-TK inhibition rate / inhibition at 1 µM: 1 μM; for inhibition at 1 µM: read-out: EGFR^wt-TK inhibition rate. On the technique in general: An ELISA detects its analyte on a solid surface through an enzyme-linked reagent.
Description: The IC50 values of target compounds against EGFR^wt were calculated from the dose − response curve under Graph-Pad Prism 9, which was tested at the different concentrations.

In series [5] the test system is A549 cells. Kind of series: A549 cell apoptosis (Annexin V-FITC/PI flow cytometry). The note with it: 48 h. (In general: Flow cytometry measures light scatter and fluorescence of single cells or particles in a stream.)
Description: And then, the original culture medium was replaced with 0.1 μM, 0.5 μM, and 1 μM compounds (Geftinib or the testing compound) in the cell incubator for 48 h. After trypsin digests cells, the cells were collected after centrifugation, resuspended with PBS and counted. After suspension of the cells with Annexin V – FITC binding solution and mixing with PI staining solution, the fluorescence density was detected by flow cytometry in BD Accuri C6 flow cytometry, which was provided by School of Pharmaceutical Sciences, Guizhou University, China.
Series [6] concerns A549 cells. Kind of series: A549 cell cycle analysis (flow cytometry). The series is classed as cell-based, Human.
Series [7] concerns NRK-52E (Normal rat kidney cell line) cells. The series is described as follows: Cytotoxicity evaluation against normal cell line (MTT). It is filed as cell-based. The note with it: 10 μM. The text has this: Three tumour cells A549, MCF-7, and PC-3 with high expression of EGFR^wt were used to investigate antitumor activities of compounds 9a–9x. NRK-52E (Normal rat kidney cell line) cells were used to evaluate cytotoxicity of compounds 9a–9x. They were all tested with typical MTT method, and Gefitinib were used as positive controls.
NRK-52E (Normal rat kidney cell line) cells were used to evaluate cytotoxicity of compounds 9a–9x.

Each structure is given as a SMILES string. Where only a bound is given, the exact number is not on record here.

T1 sequence (P00533 25-1210): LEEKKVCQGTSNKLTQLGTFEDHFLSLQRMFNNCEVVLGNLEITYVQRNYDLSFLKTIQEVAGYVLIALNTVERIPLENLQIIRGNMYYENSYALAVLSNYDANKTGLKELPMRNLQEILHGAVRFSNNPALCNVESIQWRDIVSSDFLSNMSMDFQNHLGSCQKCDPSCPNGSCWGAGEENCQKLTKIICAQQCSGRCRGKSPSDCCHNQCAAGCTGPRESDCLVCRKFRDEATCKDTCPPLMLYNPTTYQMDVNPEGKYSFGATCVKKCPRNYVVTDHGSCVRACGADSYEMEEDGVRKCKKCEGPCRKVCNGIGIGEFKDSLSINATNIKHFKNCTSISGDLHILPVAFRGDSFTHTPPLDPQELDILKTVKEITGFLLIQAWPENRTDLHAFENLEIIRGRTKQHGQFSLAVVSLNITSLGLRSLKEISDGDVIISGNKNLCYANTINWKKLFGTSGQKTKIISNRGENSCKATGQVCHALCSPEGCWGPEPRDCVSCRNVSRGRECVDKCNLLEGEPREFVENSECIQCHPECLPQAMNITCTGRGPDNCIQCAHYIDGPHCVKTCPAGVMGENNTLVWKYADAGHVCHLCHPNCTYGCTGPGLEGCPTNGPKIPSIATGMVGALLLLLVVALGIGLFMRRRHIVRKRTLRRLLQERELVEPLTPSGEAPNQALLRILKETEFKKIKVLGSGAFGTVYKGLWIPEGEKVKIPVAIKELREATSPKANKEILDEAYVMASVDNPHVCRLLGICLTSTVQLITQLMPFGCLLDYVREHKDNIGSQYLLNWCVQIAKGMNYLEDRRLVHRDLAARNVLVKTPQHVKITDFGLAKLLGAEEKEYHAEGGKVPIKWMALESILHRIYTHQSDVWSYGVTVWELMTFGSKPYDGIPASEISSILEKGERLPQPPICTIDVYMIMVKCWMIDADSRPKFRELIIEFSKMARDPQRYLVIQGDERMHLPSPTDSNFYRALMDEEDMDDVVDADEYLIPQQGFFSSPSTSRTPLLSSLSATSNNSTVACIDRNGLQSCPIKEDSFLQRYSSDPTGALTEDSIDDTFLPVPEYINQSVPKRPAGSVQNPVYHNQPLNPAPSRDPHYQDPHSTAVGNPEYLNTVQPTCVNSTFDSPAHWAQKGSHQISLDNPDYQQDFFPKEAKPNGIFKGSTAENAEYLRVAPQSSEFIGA

The compound `CNC(=O)c1sccc1Nc1nc(Nc2ccc(NC(=O)C=Cc3ccccc3)cc2)ncc1C(F)(F)F` [Compound 9t, 3-{2-[4-(3-Phenyl-acryloylamino)-phenylamino]-5-trifluoromethyl-pyrimidin-4-ylamino}-thiophene-2-carboxylic acid methylamide] came in with a melting point of 212.5 to 213.8 °C. In series [1], this compound returned a half-maximal inhibitory concentration (IC50) of 3.67 ± 0.61 µM. Moreover, the IC50 in series [2] was more than 20 µM. Half-maximal inhibition in series [3] (IC50) required 6.45 ± 0.53 µM. In series [4], the “EGFR^wt-TK inhibition rate” value is listed as 53.56 ± 1.69%, the inhibition at 1 µM is more than 50% and half-maximal inhibition (IC50) required 0.26 ± 0.071 µM.

In turn, `CNC(=O)c1sccc1Nc1nc(Nc2ccc(NC(=O)C=Cc3cccc(F)c3)cc2)ncc1C(F)(F)F` [Compound 9u, 3–(2-{4-[3-(3-Fluoro-phenyl)-acryloylamino]-phenylamino} -5-trifluoromethyl-pyrimidin-4-ylamino)-thiophene-2-carboxylic acid methylamide] gave a melting point of 237.5 to 238.8 °C. The “Q2-4 (early apoptosis)” value in series [5] (A549, 0.1 μM) came out at 3.39%. In series [5] (A549, 1 μM), the “Q2-4 (early apoptosis)” value turned out to be 52.96%. In series [1], this compound registered a concentration for half-maximal inhibition (IC50) of 0.35 ± 0.11 µM. For the same compound, in series [6] (0.1 μM), the “Proportion of A549 cells at G2/M” value amounted to 19.79%. Also, the “Proportion of A549 cells at G2/M” value in series [6] (1 μM) was found to be 43.92%. In series [2], this compound registered an IC50 of 5.12 ± 0.73 µM. In addition, the “inhibition against NRK-52E cells” value in series [7] is listed as “less than 5%”. Also, in series [3], the midpoint of inhibition, the IC50, lay at 3.24 ± 0.16 µM. Also, in series [4], the “EGFR^wt-TK inhibition rate” value amounted to 62.73 ± 1.86%, the inhibition at 1 µM was more than 50% and the IC50 turned out to be 0.091 ± 0.0084 µM.

On to `CNC(=O)c1sccc1Nc1nc(Nc2ccc(NC(=O)C=Cc3ccc(F)cc3)cc2)ncc1C(F)(F)F` [Compound 9v, 3–(2-{4-[3-(4-Fluoro-phenyl)-acryloylamino]-phenylamino}-5-trifluoromethyl-pyrimidin-4-ylamino)-thiophene-2-carboxylic acid methylamide], for which the melting point is 248.8 to 249.1 °C. The same compound came in with an IC50 in series [1] of 0.46 ± 0.27 µM. The IC50 in series [2] amounted to 7.88 ± 1.34 µM. In series [3], this compound returned an IC50 of 4.13 ± 0.21 µM. In series [4], the “EGFR^wt-TK inhibition rate” value was 58.14 ± 1.76%; the inhibition at 1 µM was more than 50%; the midpoint of inhibition, the IC50, lay at 0.14 ± 0.053 µM.

Compound `CNC(=O)c1sccc1Nc1nc(Nc2ccc(NC(=O)Nc3cccc(F)c3)cc2)ncc1C(F)(F)F` [Compound 9w, 3-(2-{4-[3–(3-Fluoro-phenyl)-ureido]-phenylamino}-5-trifluoromethyl-pyrimidin-4-ylamino)-thiophene-2-carboxylic acid methylamide] returned a melting point of more than 250 °C. In series [1], this compound had an IC50 of 3.98 ± 0.83 µM. Further, the IC50 in series [2] was determined as 10.6 ± 1.74 µM. Besides, in series [3], the IC50 is 6.15 ± 0.77 µM. The inhibition at 1 µM in series [4] worked out at 47.7 ± 1.72%.

Take `CNC(=O)c1sccc1Nc1nc(Nc2ccc(NC(=O)Nc3ccc(F)cc3)cc2)ncc1C(F)(F)F` [Compound 9x, 3–(2-{4-[3–(4-Fluoro-phenyl)-ureido]-phenylamino}-5-trifluoromethyl-pyrimidin-4-ylamino)-thiophene-2-carboxylic acid methylamide]: the melting point is more than 250 °C. Besides, the IC50 in series [1] is 4.25 ± 0.86 µM. Further, the IC50 in series [2] was 11.5 ± 1.23 µM. In addition, the midpoint of inhibition in series [3], the IC50, lay at 6.38 ± 0.97 µM. In addition, in series [4], the inhibition at 1 µM came out at 44.5 ± 1.84%.

In the case of `COc1cc2ncnc(Nc3ccc(F)c(Cl)c3)c2cc1OCCCN1CCOCC1` [Gefitinib], the “Q2-4 (early apoptosis)” value in series [5] (A549, 0.1 μM) was 1.03%; in series [5] (A549, 1 μM), 11.98%. Also, the “Proportion of A549 cells at G2/M” value in series [6] (0.1 μM) is recorded as 17.32%; in series [6] (0.5 μM), 20.72%; in series [6] (1 μM), 21.45%.
